According to patent publication US10407381B2 (THE BOARD OF TRUSTEES OF THE UNIVERSITY OF ILLINOIS, priority 2015, dated 2019):
Read-outs that look alike come from different tables or passages of the source.

Key:
[1] = target: 5-HT2B (Homo sapiens, UniProt P41595); assay: Calcium flux (FLIPR) assay, human 5-HT2B stably expressed in HEK-293 (Flp-In-293) cells; settings: for Emax, % 5-HT 5-HT2B: normalized to 5-HT
[2] = target: 5-HT2A (Homo sapiens, UniProt P28223); assay: Calcium flux (FLIPR) assay, human 5-HT2A stably expressed in HEK-293 (Flp-In-293) cells; settings: for Emax, % 5-HT 5-HT2A: normalized to 5-HT
Chain of 5-HT2A (P28223 whole entry): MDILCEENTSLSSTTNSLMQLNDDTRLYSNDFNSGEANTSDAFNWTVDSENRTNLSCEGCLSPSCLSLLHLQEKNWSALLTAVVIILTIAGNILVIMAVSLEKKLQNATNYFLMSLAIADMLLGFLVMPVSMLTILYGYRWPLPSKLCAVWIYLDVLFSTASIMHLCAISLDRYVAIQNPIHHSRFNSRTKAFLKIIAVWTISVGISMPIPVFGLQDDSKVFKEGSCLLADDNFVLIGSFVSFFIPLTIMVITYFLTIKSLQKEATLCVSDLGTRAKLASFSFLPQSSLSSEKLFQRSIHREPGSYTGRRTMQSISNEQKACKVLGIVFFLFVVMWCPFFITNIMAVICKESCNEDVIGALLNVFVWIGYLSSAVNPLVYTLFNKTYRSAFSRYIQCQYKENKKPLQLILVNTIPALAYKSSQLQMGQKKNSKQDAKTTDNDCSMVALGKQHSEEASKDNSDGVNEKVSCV

[3] = target: T1, human 5-HT2C-INI (Homo sapiens, UniProt P28335); assay: Calcium flux (FLIPR) assay, human 5-HT2C-INI stably expressed in HEK-293 (Flp-In-293) cells; settings: human 5-HT2C-INI in HEK-293 cells, FLIPR; for EC50: NA = no activity at 10 μM; for Emax, % 5-HT 5-HT2C: normalized to 5-HT
T1 sequence (P28335 33-458): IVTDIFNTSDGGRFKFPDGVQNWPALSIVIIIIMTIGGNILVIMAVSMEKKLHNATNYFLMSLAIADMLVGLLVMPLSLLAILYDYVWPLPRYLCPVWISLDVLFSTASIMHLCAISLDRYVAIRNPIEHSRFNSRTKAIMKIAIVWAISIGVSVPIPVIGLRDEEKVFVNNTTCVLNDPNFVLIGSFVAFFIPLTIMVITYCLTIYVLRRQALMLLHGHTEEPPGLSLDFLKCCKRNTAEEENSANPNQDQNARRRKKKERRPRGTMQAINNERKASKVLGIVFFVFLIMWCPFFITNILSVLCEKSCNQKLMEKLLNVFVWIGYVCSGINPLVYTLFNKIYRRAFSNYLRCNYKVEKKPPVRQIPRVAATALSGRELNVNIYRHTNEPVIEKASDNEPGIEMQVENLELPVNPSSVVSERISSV

[4] = EC50, nM 5-HT2B, human 5-HT2B in HEK-293 cells, NA = no activity at 10 μM
[5] = EC50, nM 5-HT2A, human 5-HT2A in HEK-293 cells, FLIPR, NA = no activity at 10 μM
[6] = human 5-HT2A in HEK-293 cells, FLIPR
[7] = read-out: EC50, nM 5-HT2B, human 5-HT2B in HEK-293 cells, NA = no activity at 10 μM
[8] = read-out: EC50, nM 5-HT2A, human 5-HT2A in HEK-293 cells, FLIPR, NA = no activity at 10 μM

Chain of 5-HT2B (P41595 whole entry): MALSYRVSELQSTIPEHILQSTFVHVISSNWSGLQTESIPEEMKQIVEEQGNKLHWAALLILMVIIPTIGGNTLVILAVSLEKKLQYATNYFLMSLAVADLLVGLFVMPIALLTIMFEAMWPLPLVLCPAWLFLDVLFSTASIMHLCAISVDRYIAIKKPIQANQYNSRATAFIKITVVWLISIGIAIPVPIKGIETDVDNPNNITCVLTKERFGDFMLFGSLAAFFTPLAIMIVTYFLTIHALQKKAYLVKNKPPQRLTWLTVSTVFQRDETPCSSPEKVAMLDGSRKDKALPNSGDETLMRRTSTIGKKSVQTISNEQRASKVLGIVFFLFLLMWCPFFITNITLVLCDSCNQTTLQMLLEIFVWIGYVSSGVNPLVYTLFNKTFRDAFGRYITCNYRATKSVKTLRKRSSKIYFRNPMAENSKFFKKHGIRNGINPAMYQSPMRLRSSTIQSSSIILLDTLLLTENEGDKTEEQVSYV

Row | Structure (SMILES) | EC50 [1, 4] | Emax, % 5-HT 5-HT2B ([1]; human 5-HT2B in HEK-293 cells) | EC50 [2, 5] | Emax, % 5-HT 5-HT2A [2, 6] | EC50 ([3]; EC50, nM 5-HT2C) | Emax, % 5-HT 5-HT2C [3] | EC50 [2] | EC50 [1, 7] | EC50 [2, 8] | EC50 ([3]; read-out: EC50, nM 5-HT2C) | EC50 ([2]; EC50, nM 5-HT2A)
1 | C#CCOc1cc(F)c(Cl)cc1C1CC1CN (single isomer, unassigned; (+)) [(+)-Example 6, (+)-(2-(5-Chloro-4-fluoro-2-(prop-2-yn-1-yloxy)phenyl)cyclopropyl)methanamine] | 1010 nM | (30%) % 5-HT | 628 nM | (22%) % 5-HT | 67 nM | (80%) % 5-HT |  |  |  |  | 
2 | CCCOc1ccc(F)cc1C1CC1CN (single isomer, unassigned; (+)) [(+)-Example 7, (+)-(2-(5-Fluoro-2-propoxyphenyl)cyclopropyl)methanamine] | 1990 nM | (33%) % 5-HT | 1020 nM | (15%) % 5-HT | 11 nM | (88%) % 5-HT |  |  |  |  | 
3 | CCOc1ccc(Cl)cc1C1CC1CN (single isomer, unassigned; (+)) [(+)-Example 11, (+)-(2-(5-Chloro-2-ethoxyphenyl)cyclopropyl)methanamine] | 86 nM | (45%) % 5-HT | 1210 nM | (49%) % 5-HT | 13 nM | (91%) % 5-HT |  |  |  |  | 
4 | CC(C)Oc1ccc(Cl)cc1C1CC1CN (single isomer, unassigned; (+)) [(+)-Example 14, (+)-(2-(5-Chloro-2-isopropoxyphenyl)cyclopropyl)methanamine] | 997 nM | (37%) % 5-HT | 4000 nM | (19%) % 5-HT | 91 nM | (86%) % 5-HT |  |  |  |  | 
5 | NCC1CC1c1cc(Cl)ccc1OCC(F)F (single isomer, unassigned; (+)) [(+)-Example 21, (+)-(2-(5-Chloro-2-(2,2-difluoroethoxy)phenyl)cyclopropyl)methanamine] | 839 nM | (27%) % 5-HT | 1810 nM | (31%) % 5-HT | 91 nM | (81%) % 5-HT |  |  |  |  | 
6 | C=C(C)COc1ccc(Cl)cc1C1CC1CN (single isomer, unassigned; (+)) [(+)-Example 24, (+)-(2-(5-Chloro-2-((2-methylallyl)oxy)phenyl)cyclopropyl)methanamine] | 422 nM | (32%) % 5-HT |  | (26%) % 5-HT | 212 nM | (90%) % 5-HT | 903 nM |  |  |  | 
7 | C#CCOc1ccc(Cl)cc1C1CC1CN (single isomer, unassigned; (+)) [(+)-Example 26, (+)-(2-(5-Chloro-2-(prop-2-yn-1-yloxy)phenyl)cyclopropyl)methanamine] | 4600 nM | (29%) % 5-HT | 1010 nM | (21%) % 5-HT | 63 nM | (65%) % 5-HT |  |  |  |  | 
8 | CCOc1ccc(Cl)c(F)c1C1CC1CN (single isomer, unassigned; (+)) [(+)-Example 30, (+)-(2-(3-Chloro-6-ethoxy-2-fluorophenyl)cyclopropyl)methanamine] | 900 nM | (36%) % 5-HT | 820 nM | (53%) % 5-HT | 28 nM | (89%) % 5-HT |  |  |  |  | 
9 | C=CCOc1ccc(Cl)c(F)c1C1CC1CN (single isomer, unassigned; (+)) [(+)-Example 32, (+)-(2-(6-(Allyloxy)-3-chloro-2-fluorophenyl)cyclopropyl)methanamine] | 6980 nM | (69%) % 5-HT |  | (12%) % 5-HT | 116 nM | (90%) % 5-HT |  |  |  |  | 
10 | COc1cc(Cl)c(Cl)cc1C1CC1CN (single isomer, unassigned; (+)) [(+)-Example 33, (+)-(2-(4,5-Dichloro-2-methoxyphenyl)cyclopropyl)methanamine] |  |  |  | (85%) % 5-HT |  | (95%) % 5-HT |  | 31 nM | 21 nM | 9.7 nM | 
11 | NCC1CC1c1cc(Cl)c(Cl)cc1OCCF (single isomer, unassigned; (+)) [(+)-Example 34, (+)-(2-(4,5-Dichloro-2-(2-fluoroethoxy)phenyl)cyclopropyl)methanamine] | 15400 nM | (40%) % 5-HT |  |  | 18 nM | (87%) % 5-HT | 92 nM |  |  |  | 
12 | COc1ccc(Cl)c(Cl)c1C1CC1CN (single isomer, unassigned; (+)) [(+)-Example 36, (+)-(2-(2,3-Dichloro-6-methoxyphenyl)cyclopropyl)methanamine] |  | (46%) % 5-HT |  | (76%) % 5-HT |  | (98%) % 5-HT |  | 534 nM | 203 nM | 21 nM | 
13 | CCOc1ccc(Cl)c(Cl)c1C1CC1CN (single isomer, unassigned; (+)) [(+)-Example 37, (+)-(2-(2,3-Dichloro-6-ethoxyphenyl)cyclopropyl)methanamine] | 1310 nM | (61%) % 5-HT | 976 nM | (32%) % 5-HT | 91 nM | (101%) % 5-HT |  |  |  |  | 
14 | NCC1CC1c1c(OCCF)ccc(Cl)c1Cl (single isomer, unassigned; (+)) [(+)-Example 38, (+)-(2-(2,3-Dichloro-6-(2-fluoroethoxy)phenyl)cyclopropyl)methanamine] | 5520 nM | (99%) % 5-HT |  | (22%) % 5-HT | 232 nM | (90%) % 5-HT | 949 nM |  |  |  | 
15 | COc1cc(F)c(F)cc1C1CC1CN (single isomer, unassigned; (+)) [(+)-Example 40, (+)-(2-(4,5-Difluoro-2-methoxyphenyl)cyclopropyl)methanamine] |  | (69%) % 5-HT |  |  |  | (108%) % 5-HT |  |  | 81 nM |  | 
16 | CCOc1cc(F)c(F)cc1C1CC1CN (single isomer, unassigned; (+)) [(+)-Example 41, (+)-(2-(2-Ethoxy-4,5-difluorophenyl)cyclopropyl)methanamine] | 55 nM | (59%) % 5-HT | 260 nM | (69%) % 5-HT | 2.9 nM | (105%) % 5-HT |  |  |  |  | 
17 | CCCOc1cc(F)c(F)cc1C1CC1CN (single isomer, unassigned; (+)) [(+)-Example 43, (+)-(2-(4,5-Difluoro-2-propoxyphenyl)cyclopropyl)methanamine] | 2540 nM | (24%) % 5-HT |  | (23%) % 5-HT | 26 nM | (93%) % 5-HT |  |  |  |  | 805 nM
18 | CCOc1ccc(F)c(F)c1C1CC1CN (single isomer, unassigned; (+)) [(+)-Example 46, (+)-(2-(6-Ethoxy-2,3-difluorophenyl)cyclopropyl)methanamine] | 288 nM | (48%) % 5-HT | 1160 nM | (57%) % 5-HT | 7.2 nM | (107%) % 5-HT |  |  |  |  | 
19 | CCCOc1ccc(F)c(F)c1C1CC1CN (single isomer, unassigned; (+)) [(+)-Example 48, (+)-(2-(2,3-Difluoro-6-propoxyphenyl)cyclopropyl)methanamine] | 4220 nM | (39%) % 5-HT | 2070 nM | (18%) % 5-HT | 47 nM | (90%) % 5-HT |  |  |  |  | 
20 | COc1ccc(F)c(Cl)c1C1CC1CN (single isomer, unassigned; (+)) [(+)-Example 50, (+)-(2-(2-Chloro-3-fluoro-6-methoxyphenyl)cyclopropyl)methanamine] |  | (60%) % 5-HT |  | (77%) % 5-HT |  | (88%) % 5-HT |  |  | 769 nM | 24 nM | 
21 | CCOc1ccc(F)c(Cl)c1C1CC1CN (single isomer, unassigned; (+)) [(+)-Example 51, (+)-(2-(2-Chloro-6-ethoxy-3-fluorophenyl)cyclopropyl)methanamine] | 760 nM | (56%) % 5-HT | 761 nM | (47%) % 5-HT | 22 nM | (15%) % 5-HT |  |  |  |  | 
